Changes are numbered by the printed parent chain.
Key:
[1] = target: T1, Opn5L1NC (Gallus gallus, UniProt B3XZF4, E159K/Q174K, form not given); test: LC-MS of tryptic peptide with retinal oxime at Cys188; format: binding; conditions: covalent (light-induced thio-adduct at Cys188); hydroxylamine, irradiation >500 nm
T1 construct: gene cOpn5L1; HEK293T, purified in dodecyl maltoside
T1 sequence (B3XZF4 20-310 E159K/Q174K limits assumed): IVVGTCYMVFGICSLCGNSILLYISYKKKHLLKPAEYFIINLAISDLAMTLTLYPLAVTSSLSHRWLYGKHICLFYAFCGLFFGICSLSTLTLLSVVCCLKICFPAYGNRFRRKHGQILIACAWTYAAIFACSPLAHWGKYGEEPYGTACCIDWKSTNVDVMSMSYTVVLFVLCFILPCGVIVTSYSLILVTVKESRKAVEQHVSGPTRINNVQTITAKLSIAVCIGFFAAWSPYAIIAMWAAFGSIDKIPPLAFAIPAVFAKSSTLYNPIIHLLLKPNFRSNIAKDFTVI

[2] = target: T2, Opn5L1NC (Gallus gallus, UniProt B3XZF4, C170T, form not given); test: absorption spectrum of purified pigment and HPLC of extracted retinal; format: binding; conditions: covalent (retinylidene Schiff base); retinal 5 μM added to the cell culture; pH 7.0, 10 °C
T2 construct: gene cOpn5L1; HEK293T, purified in dodecyl maltoside
T2 sequence (B3XZF4 20-310 C170T limits assumed): T1 sequence (B3XZF4 20-310 E159K/Q174K limits assumed) with K140E, C151T, K155Q

[3] = target: T3, Opn5L1 bearing native N- and C- termini (Gallus gallus, UniProt B3XZF4, C170T); test: as above; format: binding; conditions: covalent (retinylidene Schiff base)
T3 construct: gene cOpn5L1; HEK293T, purified
T3 sequence (B3XZF4 1-441 C170T): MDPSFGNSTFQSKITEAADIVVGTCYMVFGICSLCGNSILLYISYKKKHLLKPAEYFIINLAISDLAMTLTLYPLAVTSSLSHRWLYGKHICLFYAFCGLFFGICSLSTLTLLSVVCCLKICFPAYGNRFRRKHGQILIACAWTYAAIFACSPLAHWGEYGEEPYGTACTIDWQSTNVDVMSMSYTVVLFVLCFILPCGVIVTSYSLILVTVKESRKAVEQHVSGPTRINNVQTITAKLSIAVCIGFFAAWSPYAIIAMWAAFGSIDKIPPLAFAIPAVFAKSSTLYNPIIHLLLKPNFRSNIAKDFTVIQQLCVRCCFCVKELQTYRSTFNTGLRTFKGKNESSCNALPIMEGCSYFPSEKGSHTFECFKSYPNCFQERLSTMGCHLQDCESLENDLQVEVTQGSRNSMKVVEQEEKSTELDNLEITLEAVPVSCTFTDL

[4] = target: T4, Opn5L1 bearing native N- and C- termini (Gallus gallus, UniProt B3XZF4); test: as above; format: binding; conditions: covalent (retinylidene Schiff base)
T4 construct: gene cOpn5L1; HEK293T, purified
T4 sequence (B3XZF4 1-441): T3 sequence (B3XZF4 1-441 C170T) with T170C

[5] = target: T5, Opn5L1NC (Gallus gallus, UniProt B3XZF4); test: as above; format: binding; conditions: covalent (retinylidene Schiff base); 10 μM retinal, 4 °C, 8 h, dark; pH 7.0
T5 construct: gene cOpn5L1; HEK293T, purified in dodecyl maltoside
T5 sequence (B3XZF4 20-310 limits assumed): T1 sequence (B3XZF4 20-310 E159K/Q174K limits assumed) with K140E, K155Q

[6] = target: T6, Opn5L1N (Gallus gallus, UniProt B3XZF4); test: […]GTPgammaS filter binding assay of Gi activation; format: biochemical; conditions: agonist; membrane fraction, 0.6 μM Gi, dark, pH 7.0, 25 °C; covalent (retinylidene Schiff base)
T6 construct: gene cOpn5L1; HEK293T membranes
T6 sequence (B3XZF4 20-441 limits assumed): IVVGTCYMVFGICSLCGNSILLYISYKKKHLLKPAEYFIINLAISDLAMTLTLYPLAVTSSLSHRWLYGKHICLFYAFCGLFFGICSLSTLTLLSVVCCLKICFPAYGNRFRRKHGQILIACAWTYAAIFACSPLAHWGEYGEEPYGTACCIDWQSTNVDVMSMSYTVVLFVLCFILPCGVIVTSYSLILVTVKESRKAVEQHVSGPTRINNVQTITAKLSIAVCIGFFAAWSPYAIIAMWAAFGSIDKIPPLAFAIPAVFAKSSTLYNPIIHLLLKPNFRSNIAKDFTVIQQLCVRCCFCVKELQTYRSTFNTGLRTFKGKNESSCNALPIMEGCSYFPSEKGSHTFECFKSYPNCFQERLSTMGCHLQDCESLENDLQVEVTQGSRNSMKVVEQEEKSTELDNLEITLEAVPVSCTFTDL

EC50 [6]: 620 nM
SMILES: CC1=C(/C=C/C(C)=C/C=C/C(C)=C/C=O)C(C)(C)CCC1 [all-trans-retinal]
LC-MS of tryptic peptide with retinal oxime at Cys188 [1]: Light increased the amount of peptide with retinal oxime at the second cysteine | absorption spectrum of purified pigment and HPLC of extracted retinal [2]: the C188T mutant of Opn5L1NC showed an absorption maximum similar to that of WT | absorption spectrum of purified pigment and HPLC of extracted retinal [3]: verified the function of Cys188 in the mutant Opn5L1 bearing native N- and C- termini | absorption spectrum of purified pigment and HPLC of extracted retinal [4]: Opn5L1 bearing native N- and C- termini showed molecular characteristics indistinguishable | absorption spectrum of purified pigment and HPLC of extracted retinal [5]: we concluded that Opn5L1NC directly incorporates all-trans-retinal and not 11-cis-retinal
